What all share (type): cell-based
Test [1] has as its system Staphylococcus aureus (CP and PC resistant). The test can be described thus: Minimal inhibitory concentration. The note with it: I B: Staphylococcus aureus (CP and PC resistant). An excerpt: (§1) Minimal inhibitory concentrations of various microorganisms mcg/ml
1 B Staphylococcus aureus

Test [2] deals with Staphylococcus aureus 209p. In words: Minimal inhibitory concentration. The note with it: I A: Staphylococcus aureus 209p; read-out: Minimal inhibitory concentration.
Source text: as §1
1 A Staphylococcus aureus 209p

Test [3] deals with broad pathogenic microorganisms. The test can be described thus: antimicrobial activity. The note with it: result in words.
Test [4] deals with E. coli 609 (CER resistant). The test can be described thus: Minimal inhibitory concentration. The note with it: Escherichia coli; II B: E. coli 609 (CER resistant); read-out: Minimal inhibitory concentration.
Source text: as §1
II B E. coli 609 (CER resistant)

For test [5], the system named is Klebsiella neumoniae 846 (CER resistant). The test can be described thus: Minimal inhibitory concentration. The note with it: IV B: Klebsiella neumoniae 846 (CER resistant).
Source text: as §1
IV B Klebsiella neumoniae 846 (CER resistant)

The test system of test [6] is Proteus vulgaris. The test can be described thus: Minimal inhibitory concentration. The note with it: V: Proteus vulgaris; read-out: Minimal inhibitory concentration.
Source text: as §1

In test [7] the test system is E. coli NIHJ. In words: Minimal inhibitory concentration. The note with it: Escherichia coli; II A: E. coli NIHJ.
Source text: as §1

For test [8], the system named is Salmonella enteritidis Gaertner. The test can be described thus: Minimal inhibitory concentration. The note with it: Salmonella enterica; VI: Salmonella enteritidis Gaertner; read-out: Minimal inhibitory concentration.
Source text: as §1
VI Salmonella enteritidis Gaertner

Test [9] relates to Klebsiella neumoniae 806. In words: Minimal inhibitory concentration. The note with it: IV A: Klebsiella neumoniae 806; read-out: Minimal inhibitory concentration.
Source text: as §1
IV A Klebsiella neumoniae 806

In test [10] the test system is Shigella flexneri Komagome. The test can be described thus: Minimal inhibitory concentration. The note with it: read-out: Minimal inhibitory concentration.
Source text: as §1
III Shigella flexneri Komagome

Where [11] appears, read: III: Shigella flexneri Komagome.

Converted amounts (≈) assume the structure as drawn. Like-named read-outs stand apart in the source and are kept apart here. Some results are limits rather than exact numbers.

On to `CO[C@@]1(NC(=O)CSc2ncc[nH]2)C(=O)N2C(C(=O)O)=C(COC(N)=O)CS[C@@H]21` [7β-(imidazol-2-yl)thioacetamido-7α-methoxy-3-carbamoyloxymethyl-3-cephem-4-carboxylic acid], for which the MIC in test [1] was 0.8 µg/mL (≈ 1.8 µM); in test [2], at most 0.1 µg/mL; in test [4], 3.1 µg/mL (≈ 6.99 µM); in [5], above 200 µg/mL; in test [6], 6.2 µg/mL (≈ 14 µM); in test [7], 1.5 µg/mL (≈ 3.38 µM). Moreover, the MIC was 1.5 µg/mL (≈ 3.38 µM) in test [8], 3.1 µg/mL (≈ 6.99 µM) in [9] and 3.1 µg/mL (≈ 6.99 µM) in test [10] (setting [11]). Further, the “antimicrobial activity against broad pathogenic microorganisms” value (“antimicrobial activity” for short) in test [3] is on record as “excellent antimicrobial activity”.
As for `CO[C@@]1(NC(=O)CSCN=[N+]=[N-])C(=O)N2C(C(=O)O)=C(COC(C)=O)CS[C@@H]21` [7β-azidomethylthioacetamido-7α-methoxy-3-acetoxymethyl-3-cephem-4-carboxylic acid], the MIC in [1] was 0.8 µg/mL (≈ 1.85 µM); in [2] it was 0.4 µg/mL (≈ 0.927 µM); in [4] it was 6.2 µg/mL (≈ 14.4 µM); in test [5], above 200 µg/mL; in test [6] it was 3.1 µg/mL (≈ 7.19 µM); in [7], 6.2 µg/mL (≈ 14.4 µM). Also, the MIC worked out at 1.5 µg/mL (≈ 3.48 µM) in [8], 6.2 µg/mL (≈ 14.4 µM) in [9] and 6.2 µg/mL (≈ 14.4 µM) in test [10] (setting [11]). For the same compound, the “antimicrobial activity” value in test [3] is listed as “excellent antimicrobial activity”.
Regarding `CO[C@@]1(NC(=O)CSCC#N)C(=O)N2C(C(=O)O)=C(COC(C)=O)CS[C@@H]21` [7β-cyanomethylthioacetamido-7α-methoxy-3-acetoxymethyl-3-cephem-4-carboxylic acid], the MIC in [1] is 0.8 µg/mL (≈ 1.93 µM); in [2] it was 0.2 µg/mL (≈ 0.481 µM); in [4] it was 1.5 µg/mL (≈ 3.61 µM); in test [5], above 400 µg/mL; in test [6], 6.2 µg/mL (≈ 14.9 µM); in test [7] it was 1.5 µg/mL (≈ 3.61 µM). For the same compound, the results for the MIC in test [8], in [9] and in test [10] (setting [11]) were 0.8 µg/mL (≈ 1.93 µM), 1.5 µg/mL (≈ 3.61 µM) and 3.1 µg/mL (≈ 7.46 µM), respectively. Moreover, the “antimicrobial activity” value in test [3] is recorded as “excellent antimicrobial activity”.
Take `CO[C@@]1(NC(=O)CSCC#N)C(=O)N2C(C(=O)O)=C(COC(N)=O)CS[C@@H]21` [7β-cyanomethylthioacetamido-7α-methoxy-3-carbamoyloxymethyl-3-cephem-4-carboxylic acid]: the MIC in test [1] is 1.5 µg/mL (≈ 3.6 µM); in test [2] it was 0.8 µg/mL (≈ 1.92 µM); in test [4], 0.8 µg/mL (≈ 1.92 µM); in test [5], above 400 µg/mL; in [6], 6.2 µg/mL (≈ 14.9 µM); in test [7] it was 1.5 µg/mL (≈ 3.6 µM). Moreover, the figures for the MIC in test [8], in test [9] and in [10] (setting [11]) were 0.4 µg/mL (≈ 0.961 µM), 0.4 µg/mL (≈ 0.961 µM) and 3.1 µg/mL (≈ 7.44 µM), respectively. Moreover, in test [3], the “antimicrobial activity” value was “excellent antimicrobial activity”.
`CO[C@@]1(NC(=O)CS(C)(=O)=O)C(=O)N2C(C(=O)O)=C(CSc3nnnn3C)CS[C@@H]21` [7β-methylsulfonylacetamido-7α-methoxy-3-(1-methyl-1H-tetrazole-5-yl)thiomethyl-3-cephem-4-carboxylic acid]: the MIC came out at 3.1 µg/mL (≈ 6.48 µM) in test [1]; 0.8 µg/mL (≈ 1.67 µM) in test [2]; 1.5 µg/mL (≈ 3.13 µM) in test [4]; 400 µg/mL (≈ 836 µM) in [5]; 12.5 µg/mL (≈ 26.1 µM) in test [6]; 1.5 µg/mL (≈ 3.13 µM) in test [7]. Besides, the MIC stood at 0.4 µg/mL (≈ 0.836 µM) in test [8], 0.8 µg/mL (≈ 1.67 µM) in [9] and 1.5 µg/mL (≈ 3.13 µM) in [10] (setting [11]). Besides, the “antimicrobial activity” value in test [3] is on record as “excellent antimicrobial activity”.
Take `C#CCSCC(=O)N[C@]1(OC)C(=O)N2C(C(=O)O)=C(CSc3nnnn3C)CS[C@@H]21` [7β-propargylthioacetamido-7α-methoxy-3-(1-methyl-1H-tetrazol-5-yl)thiomethyl-3-cephem-4-carboxylic acid]: the MIC was found to be 0.8 µg/mL (≈ 1.7 µM) in test [1]; 0.2 µg/mL (≈ 0.425 µM) in test [2]; 3.1 µg/mL (≈ 6.59 µM) in test [4]; 400 µg/mL (≈ 850 µM) in test [5]; 3.1 µg/mL (≈ 6.59 µM) in test [6]; 3.1 µg/mL (≈ 6.59 µM) in [7]. Also, the MIC in test [8] stood at 0.8 µg/mL (≈ 1.7 µM); in [9], 3.1 µg/mL (≈ 6.59 µM); in [10] (setting [11]), 3.1 µg/mL (≈ 6.59 µM). Also, in test [3], the “antimicrobial activity” value was “excellent antimicrobial activity”.
Turning to `C#CCSCC(=O)N[C@]1(OC)C(=O)N2C(C(=O)O)=C(COC(C)=O)CS[C@@H]21` [7β-propargylthioacetamido-7α-methoxy-3-acetoxymethyl-3-cephem-4-carboxylic acid], the MIC in test [1] was 3.1 µg/mL (≈ 7.48 µM); in test [2], 0.8 µg/mL (≈ 1.93 µM); in test [4] it was 6.2 µg/mL (≈ 15 µM); in [5], above 400 µg/mL; in test [6] it was 6.2 µg/mL (≈ 15 µM); in [7], 3.1 µg/mL (≈ 7.48 µM). Further, the MIC in [8] stood at 1.5 µg/mL (≈ 3.62 µM); in test [9] it was 6.2 µg/mL (≈ 15 µM); in [10] (setting [11]) it was 6.2 µg/mL (≈ 15 µM). Further, the “antimicrobial activity” value in test [3] was “excellent antimicrobial activity”.
As to `C#CCSCC(=O)N[C@]1(OC)C(=O)N2C(C(=O)O)=C(COC(N)=O)CS[C@@H]21` [7β-propargylthioacetamido-7α-methoxy-3-carbamoyloxymethyl-3-cephem-4-carboxylic acid], the MIC in [1] was 1.5 µg/mL (≈ 3.61 µM); in [2] it was 0.8 µg/mL (≈ 1.93 µM); in test [4] it was 3.1 µg/mL (≈ 7.46 µM); in test [5], above 400 µg/mL; in test [6], 6.2 µg/mL (≈ 14.9 µM); in test [7], 3.1 µg/mL (≈ 7.46 µM). The MIC in [8] came out at 1.5 µg/mL (≈ 3.61 µM); in test [9], 3.1 µg/mL (≈ 7.46 µM); in test [10] (Shigella flexneri), 6.2 µg/mL (≈ 14.9 µM). Moreover, the “antimicrobial activity” value in test [3] is “excellent antimicrobial activity”.
